Molecular target: T1, CFTR ΔF508 mutant (Homo sapiens, UniProt P13569, DEL508-508)
T1 construct: expressed in transfected cells; host or cells: CFBE41o- (adenoviral transduction)
Test: YFP-halide influx assay for the CFTR-ΔF508 mutation, gluconate buffer
Format: cell-based
Conditions: CFBE41o- cells, forskolin 10.67 μM
Method in brief: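 CFBE41o- cells adenovirally transduced with CFTR ΔF508 and YFP H148Q/I152L, then held 24 h at 27 °C or treated with CFTR modulator 24 h at 37 °C. I− quenching recorded for 7 s after injection; activity as 1-F/F0, EC50 from concentration plot.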

T1 sequence (P13569 with tags, fused parts or gaps DEL508-508): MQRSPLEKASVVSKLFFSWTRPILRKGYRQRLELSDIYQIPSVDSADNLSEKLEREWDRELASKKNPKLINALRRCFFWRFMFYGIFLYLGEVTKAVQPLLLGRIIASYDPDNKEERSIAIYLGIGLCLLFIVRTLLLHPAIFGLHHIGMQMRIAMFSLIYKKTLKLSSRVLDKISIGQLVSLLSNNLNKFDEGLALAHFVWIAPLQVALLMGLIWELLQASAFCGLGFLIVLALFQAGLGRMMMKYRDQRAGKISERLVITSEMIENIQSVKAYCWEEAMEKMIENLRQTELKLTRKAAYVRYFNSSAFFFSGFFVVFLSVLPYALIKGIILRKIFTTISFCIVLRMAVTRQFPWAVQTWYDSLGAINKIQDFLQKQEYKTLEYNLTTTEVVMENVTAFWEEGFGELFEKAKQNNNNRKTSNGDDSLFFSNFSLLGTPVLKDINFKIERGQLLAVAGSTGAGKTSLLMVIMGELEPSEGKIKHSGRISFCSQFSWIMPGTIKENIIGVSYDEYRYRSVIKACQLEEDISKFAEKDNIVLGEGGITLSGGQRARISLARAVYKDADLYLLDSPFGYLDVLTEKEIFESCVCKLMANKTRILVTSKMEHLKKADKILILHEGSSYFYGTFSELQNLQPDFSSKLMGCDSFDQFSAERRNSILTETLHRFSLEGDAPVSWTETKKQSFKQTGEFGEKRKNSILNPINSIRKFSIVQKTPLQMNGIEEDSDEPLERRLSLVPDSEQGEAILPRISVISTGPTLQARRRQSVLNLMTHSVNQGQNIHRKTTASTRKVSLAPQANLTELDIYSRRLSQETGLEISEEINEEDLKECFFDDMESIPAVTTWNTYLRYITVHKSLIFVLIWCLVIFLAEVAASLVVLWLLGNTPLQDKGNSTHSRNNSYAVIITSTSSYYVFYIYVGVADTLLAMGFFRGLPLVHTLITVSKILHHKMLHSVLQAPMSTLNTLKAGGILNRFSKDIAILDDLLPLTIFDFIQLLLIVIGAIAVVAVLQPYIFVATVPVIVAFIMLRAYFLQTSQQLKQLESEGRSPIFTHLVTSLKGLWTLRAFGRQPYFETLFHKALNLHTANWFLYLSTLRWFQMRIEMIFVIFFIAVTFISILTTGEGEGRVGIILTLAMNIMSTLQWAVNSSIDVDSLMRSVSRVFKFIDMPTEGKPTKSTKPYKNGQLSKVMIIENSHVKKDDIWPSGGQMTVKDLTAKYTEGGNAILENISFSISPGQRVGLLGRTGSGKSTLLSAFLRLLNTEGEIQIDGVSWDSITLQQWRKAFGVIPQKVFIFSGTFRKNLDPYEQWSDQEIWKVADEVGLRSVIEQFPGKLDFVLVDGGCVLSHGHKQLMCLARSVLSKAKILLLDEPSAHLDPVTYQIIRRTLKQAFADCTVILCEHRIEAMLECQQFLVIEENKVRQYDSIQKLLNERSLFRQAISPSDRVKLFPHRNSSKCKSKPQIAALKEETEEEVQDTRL

SMILES	EC50 [nM]
Cc1ccc(C(=O)Nc2sc(S(=O)(=O)c3ccccc3)cc2C(N)=O)s1 [Compound 16, N-(3-carbamoyl-5-(phenylsulfonyl)thiophen-2-yl)-5-methylthiophene-2-carboxamide]	99.7
CN(CC#N)S(=O)(=O)c1cc(C(N)=O)c(NC(=O)c2ccccc2F)s1 [Compound 125, 5-(N-(cyanomethyl)-N-methylsulfamoyl)-2-(2-fluorobenzamido) thiophene-3-carboxamide]	580
Cc1ccccc1S(=O)(=O)c1cc(C(N)=O)c(NC(=O)c2ccccc2F)s1 [Compound 180, 2-(2-fluorobenzamido)-5-(o-tolylsulfonyl)thiophene-3-carboxamide]	123
NC(=O)c1cc(S(=O)(=O)N2CCC2)sc1NC(=O)c1cc[nH]n1 [Compound 208, N-(5-(azetidin-1-ylsulfonyl)-3-carbamoylthiophen-2-yl)-1H-pyrazole-3-carboxamide]	573
N#CC1CN(S(=O)(=O)c2cc(C(N)=O)c(NC(=O)c3ccccc3F)s2)C1 [Compound 176, 5-(3-cyanoazetidin-1-ylsulfonyl)-2-(2-fluorobenzamido)thiophene-3-carboxamide]	1460
NC(=O)c1cc(S(=O)(=O)N2CCOCC2)sc1NC(=O)c1ccccc1F [Compound 46, 2-(2-fluorobenzamido)-5-(morpholinosulfonyl) thiophene-3-carboxamide]	284
Cc1nc(C(=O)Nc2sc(S(=O)(=O)N3CCOCC3)cc2C(N)=O)cs1 [Compound 132, N-(3-carbamoyl-5-(morpholinosulfonyl)thiophen-2-yl)-2-methylthiazole-4-carboxamide]	3330
NC(=O)c1cc(S(=O)(=O)N2CCC(c3ccccc3)CC2)sc1NC(=O)c1ccccc1F [Compound 159, 2-(2-fluorobenzamido)-5-(4-phenylpiperidin-1-ylsulfonyl)thiophene-3-carboxamide]	407
NC(=O)c1cc(S(=O)(=O)N2CCOCC2)sc1NC(=O)c1cscn1 [Compound 76, N-(3-carbamoyl-5-(morpholinosulfonyl)thiophen-2-yl)thiazole-4-carboxamide]	621
CC1(C(=O)Nc2sc(S(=O)(=O)N3CCOCC3)cc2C(N)=O)CC1 [Compound 45, 2-(1-methylcyclopropanecarboxamido)-5-(morpholinosulfonyl) thiophene-3-carboxamide]	1280
NC(=O)c1cc(S(=O)(=O)N2CCc3ccccc3C2)sc1NC(=O)c1ccccc1F [Compound 150]	638
CC1(C(=O)Nc2sc(S(=O)(=O)N3CCCCC3)cc2C(N)=O)CC1 [Compound 31, 2-(1-methylcyclopropanecarboxamido)-5-(piperidin-1-ylsulfonyl) thiophene-3-carboxamide]	184
NC(=O)c1cc(S(=O)(=O)N2CCCOCC2)sc1NC(=O)c1cc[nH]n1 [Compound 146, N-(5-(1,4-oxazepan-4-ylsulfonyl)-3-carbamoylthiophen-2-yl)-1H-pyrazole-3-carboxamide]	241
Cc1ccc(C(=O)Nc2sc(S(=O)(=O)N(C)Cc3ccccc3)cc2C(N)=O)s1 [Compound 6, N-(5-(N-benzyl-N-methylsulfamoyl)-3-carbamoylthiophen-2-yl)-5-methylthiophene-2-carboxamide]	321
NC(=O)c1cc(S(=O)(=O)c2ccc(F)cc2CO)sc1NC(=O)c1ccccc1F [Compound 196, 5-(4-fluoro-2-(hydroxymethyl)phenylsulfonyl)-2-(2-fluorobenzamido) thiophene-3-carboxamide]	2100
NC(=O)c1cc(S(=O)(=O)N2CCCCC2)sc1NC(=O)c1ccc(Cl)cc1 [Compound 20, 2-(4-chlorobenzamido)-5-(piperidin-1-ylsulfonyl)thiophene-3-carboxamide]	392
NC(=O)c1cc(S(=O)(=O)N2CCOCC2)sc1NC(=O)c1cc2ccccc2s1 [Compound 50, N-(3-carbamoyl-5-(morpholinosulfonyl)thiophen-2-yl)benzo[b] thiophene-2-carboxamide]	391
COc1cccc(C(=O)Nc2sc(S(=O)(=O)N3CCCCC3)cc2C(N)=O)c1 [Compound 18, 2-(3-methoxybenzamido)-5-(piperidin-1-ylsulfonyl)thiophene-3-carboxamide]	472

Continued by falling EC50, values first:

EC50 [nM]	SMILES
9840	Cc1nnc(C(=O)Nc2sc(S(=O)(=O)N3CCCCC3)cc2C(N)=O)o1 [Compound 33, N-(3-carbamoyl-5-(piperidin-1-ylsulfonyl)thiophen-2-yl)-5-methyl-1,3,4-oxadiazole-2-carboxamide]
3330	NC(=O)c1cc(S(=O)(=O)N2CCCC2)sc1NC(=O)c1cc2ccccc2s1 [Compound 55, N-(3-carbamoyl-5-(pyrrolidini-1-ylsulfonyl)thiophen-2-yl)benzo[b] thiophene-2-carboxamide]
3050	Cn1nc(C(C)(C)C)cc1C(=O)Nc1sc(S(=O)(=O)N2CCOCC2)cc1C(N)=O [Compound 167, 3-tert-butyl-N-(3-carbamoyl-5-(morpholinosulfonyl)thiophen-2-yl)-1-methyl-1H-pyrazole-5-carboxamide]
2660	CC(C)(C)C(=O)Nc1sc(S(=O)(=O)N2CCOCC2)cc1C(N)=O [Compound 47, 5-(morpholinosulfonyl)-2-pivalamidothiophene-3-carboxamide]
945	N#Cc1ccccc1C(=O)Nc1sc(S(=O)(=O)N2CCCCC2)cc1C(N)=O [Compound 25, 2-(2-cyanobenzamido)-5-(piperidin-1-ylsulfonyl)thiophene-3-carboxamide]
900	NC(=O)c1cc(S(=O)(=O)N2CCCCC2)sc1NC(=O)C1(C(F)(F)F)CC1 [Compound 38, 5-(piperidin-1-ylsulfonyl)-2-(1-(trifluoromethyl)cyclopropanecarboxamido) thiophene-3-carboxamide]
772	COc1ccccc1C(=O)Nc1sc(S(=O)(=O)N2CCCCC2)cc1C(N)=O [Compound 24, 2-(2-methoxybenzamido)-5-(piperidin-1-ylsulfonyl)thiophene-3-carboxamide]
679	CN(CC(C)(C)C)S(=O)(=O)c1cc(C(N)=O)c(NC(=O)c2ccccc2F)s1 [Compound 184, 2-(2-fluorobenzamido)-5-(N-methyl-N-neopentylsulfamoyl) thiophene-3-carboxamide]
646	Cc1ccc(C(=O)Nc2sc(S(=O)(=O)N3Cc4ccccc4C3)cc2C(N)=O)s1 [Compound 8, N-(3-carbamoyl-5-(isoindolin-2-ylsulfonyl)thiophen-2-yl)-5-methylthiphen-2-carboxamide]
488	CC(C)(C)C(=O)Nc1sc(S(=O)(=O)c2ccc(F)c(F)c2)cc1C(N)=O [Compound 120, 5-(3,4-difluorophenylsulfonyl)-2-pivalamidothiophene-3-carboxamide]
484	COc1ccc(C(=O)Nc2sc(S(=O)(=O)N3CCCCC3)cc2C(N)=O)cc1 [Compound 21, 2-(4-methoxybenzamido)-5-(piperidin-1-ylsulfonyl)thiophene-3-carboxamide]
331	N#CC1CCN(S(=O)(=O)c2cc(C(N)=O)c(NC(=O)c3ccccc3F)s2)CC1 [Compound 162, 5-(4-cyanopiperidin-1-ylsulfonyl)-2-(2-fluorobenzamido) thiophene-3-carboxamide]
293	NC(=O)c1cc(S(=O)(=O)N2CCCCC2)sc1NC(=O)c1ccc(F)s1 [Compound 39, N-(3-carbamoyl-5-(piperidin-1-ylsulfonyl)thiophen-2-yl)-5-fluorothiophene-2-carboxamide]
289	NC(=O)c1cc(S(=O)(=O)N2CCCCC2)sc1NC(=O)c1ccc(F)cc1 [Compound 26, 2-(4-fluorobenzamido)-5-(piperidin-1-ylsulfonyl)thiophene-3-carboxamide]
271	NC(=O)c1cc(S(=O)(=O)N2CCOCC2)sc1NC(=O)c1ccc(Cl)cc1F [Compound 133, 2-(4-chloro-2-fluorobenzamido)-5-(morpholinosulfonyl) thiophene-3-carboxamide]
147	CCc1cc(C(=O)Nc2sc(S(=O)(=O)N3CCOCC3)cc2C(N)=O)n[nH]1 [Compound 69, N-(3-carbamoyl-5-(morpholinosulfonyl)thiophen-2-yl)-5-ethyl-1H-pyrazole-3-carboxamide]
144	COc1ccccc1S(=O)(=O)c1cc(C(N)=O)c(NC(=O)c2ccccc2F)s1 [Compound 181, 2-(2-fluorobenzamido)-5-(2-methoxyphenylsulfonyl) thiophene-3-carboxamide]
135	Cc1ccc(C(=O)Nc2sc(S(=O)(=O)N3CCCCC3)cc2C(N)=O)s1 [Compound 1, N-(3-carbamoyl-5-(piperidin-1-ylsulfonyl)thiophen-2-yl)-5-methylthiophene-2-carboxamidc]
82.1	CN(C1CC1)S(=O)(=O)c1cc(C(N)=O)c(NC(=O)c2ccccc2F)s1 [Compound 152, 5-(N-cyclopropyl-N-methylsulfamoyl)-2-(2-fluorobenzamido)thiophene-3-carboxamide]
78.3	CCc1cc(C(=O)Nc2sc(S(=O)(=O)c3ccc(F)c(F)c3)cc2C(N)=O)n[nH]1 [Compound 119, N-(3-carbamoyl-5-(3,4-difluorophenylsulfonyl)thiophen-2-yl)-5-ethyl-1H-pyrazole-3-carboxamide]
38.4	CCc1cc(C(=O)Nc2sc(S(=O)(=O)c3ccccc3)c(C)c2C(N)=O)n[nH]1 [Compound 103, N-(3-carbamoyl-4-methyl-5-(phenylsulfonyl)thiophen-2-yl)-5-ethyl-1H-pyrazole-3-carboxamide]

Molecular target: T1, CFTR ΔF508 mutant
Test: YFP-halide influx assay for the CFTR-ΔF508 mutation (384 well, FDSS/μCell)
Format: cell-based
Conditions: CFBE41o- cells, CFTR-ΔF508, 1×D-PBS, fluorescence after 36 seconds
Method in brief: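 Potentiator read-out as 1−F/F0, F taken 36 s after iodide addition, EC50 fitted against compound concentration. Cells: CFBE41o- expressing ΔF508 CFTR plus halide-sensitive YFP via adenovirus, rescued by 27 °C for 24 h or 24 h modulator at 37 °C.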

EC50 [nM]	SMILES
54.6	CCc1cc(C(=O)Nc2sc(S(=O)(=O)c3ccccc3)c(C)c2C(N)=O)n[nH]1 [Compound 103, N-(3-carbamoyl-4-methyl-5-(phenylsulfonyl)thiophen-2-yl)-5-ethyl-1H-pyrazole-3-carboxamide]
187	CCc1cc(C(=O)Nc2sc(S(=O)(=O)c3ccc(F)c(F)c3)cc2C(N)=O)n[nH]1 [Compound 119, N-(3-carbamoyl-5-(3,4-difluorophenylsulfonyl)thiophen-2-yl)-5-ethyl-1H-pyrazole-3-carboxamide]
135	CN(C1CC1)S(=O)(=O)c1cc(C(N)=O)c(NC(=O)c2ccccc2F)s1 [Compound 152, 5-(N-cyclopropyl-N-methylsulfamoyl)-2-(2-fluorobenzamido)thiophene-3-carboxamide]
187	Cc1ccc(C(=O)Nc2sc(S(=O)(=O)c3ccccc3)cc2C(N)=O)s1 [Compound 16, N-(3-carbamoyl-5-(phenylsulfonyl)thiophen-2-yl)-5-methylthiophene-2-carboxamide]
